Legend:
human melanoma cells = test: Transfer of AO to tumour cells, spectrofluorimeter; assay type: cell-based; details: AO 0.1 pg/mL; cells cultured in unbuffered medium
From the text: Acridine orange was not activated with blue light.

[1] = tested on: drug-resistant CEM/VBL100 cells; test: Cytotoxicity by Trypan blue assay on CEM/VBL100 cells; assay type: cell-based; details: CEM/VBL100, 24 h
Protocol: Increasing concentrations of VBL alone and loaded into the plant nanovesicles were used to assess the cytotoxic effect on CEM and CEM/VBL100 leukaemic cells by Trypan blue assay after 48 and 24 h of incubation, respectively. A) The cytotoxic effect on CEM cells starts to be evident at a concentration of 1000 ng/mL and is enhanced in VBL loaded in the plant nanovesicles (2.6-fold higher than in VBL alone).

SMILES	percentage of AO transferred to tumour cells (human melanoma cells)	mortality at 0.0001 µg/mL [1] [%]
CN(C)c1ccc2cc3ccc(N(C)C)cc3nc2c1 [AO, Acridine Orange]	significantly reduced	–
CC[C@]1(O)C[C@@H]2CN(CCc3c([nH]c4ccccc34)[C@@](C(=O)OC)(c3cc4c(cc3OC)N(C)[C@H]3[C@@](O)(C(=O)OC)[C@H](OC(C)=O)[C@]5(CC)C=CCN6CC[C@]43[C@@H]65)C2)C1 [VBL, vinblastine]	–	0.7
